“Also recorded” adds a separate entry of the source. Where two headings read alike, the source gives them in different places.
Key:
Lsa-nAChR1 (α1α2β1β2) = Lsa-nAChR1 (α1α2β1β2) (Lepeophtheirus salmonis, UniProt A0A7S5PZ05+A0A7S5Q3W4+A0A7S5Q7H3+A0A7S5U9A3); experiment: cell-based; assay type: cell-based; details: for agonist screening (pre- and co-application protocol): 1 μM; for type of effect on the receptor (agonist / partial-agonist / no effect): dose-response; for Emax: read-out: Max peak (% Ach); for inward current on average: 10 μM sazetidine A
Procedure: (§1) Capped cRNAs were synthesized (T7 mMessage mMachine kit, Ambion, Austin, TX, USA) from the linearized vectors containing the different subunits according to the manufacturer’s protocol. cRNA samples were stored at -80°C until use. Oocytes were ordered from Ecocyte (Germany). Oocytes were microinjected using a Roboinject automatic injection system (Multi Channel Systems, Reutlingen, Germany) with 15–25 nl of cRNA solution (30–300 ng/μl per subunit) and then incubated at 18°C in sterile filtered Barth solution containing: NaCl (88 mM), KCl (1 mM), NaHCO3 (2.4 mM), HEPES (10 mM, pH 7.5), MgSO4·7H2O (0.82 mM), Ca(NO3)2·4H2O (0.33 mM), CaCl2·6H2O (0.41 mM), at pH 7.4, and supplemented with 20 μg/ml of kanamycin, 100 U/ml benzylpenicillin and 100 μg/ml streptomycin. Recordings were made 3–5 days post-cRNA injection.
(§2) Oocytes were impaled with two electrodes filled with 3 M KCl, and their membrane potentials were maintained at -80 mV throughout the experiment. Currents evoked by ACh or drugs were recorded using an automated process equipped with standard two-electrode voltage-clamp configuration (HiClamp, MultiChannel Systems). The principle of this system differs from standard electrophysiology because, instead of applying the compound in the perfusion, the oocyte is moved into a well from a 96-well microtiter plate containing the desired solution. Data were captured at 100 Hz, filtered at 10 Hz, and analyzed using proprietary data acquisition and analysis software running under Matlab (Mathworks Inc., Natick, MA, USA). Additional analyses were performed in Excel (Microsoft, Redmond, WA, USA). […] Concentration-activation curves were fitted with the equation: Y=100/1+10^H(logEC50−X) (1) where Y is the normalized response, logEC50 is the logarithm of the concentration of agonist eliciting half-maximal current amplitude, X is the log of dose or concentration, and H is the slope factor or Hill slope. Individual curves were standardized to the initial ACh (100 μM) application amplitude and subsequently averaged. EC50 values were determined from the mean of at least 3 or more cells.
(§3) Dose-response curves were obtained by sequential applications for 10s of increasing concentrations of ACh or drugs to oocytes expressing Lsa-nAChR1 or Lsa-nAChR2. A total time of 90 s time was allowed between applications for the channel to recover from any desensitization. To test the antagonistic effect of DHbE (Fig 5) and for the screening protocol (Fig 6), cells that evoked a significant current with ACh were exposed to the test compounds at 10 μM respectively 1 μM using a pre-application of 45 s and co-application of 10 s with ACh (1 μM).

Lsa-nAChR2 (α3β1β2) = Lsa-nAChR2 (α3β1β2) (Lepeophtheirus salmonis, UniProt A0A7S5PZ03+A0A7S5PZ05+A0A7S5Q7H3); experiment: cell-based; assay type: cell-based; details: for type of effect on the receptor (agonist / partial-agonist / super-agonist / no effect): dose-response; for agonist screening (pre- and co-application protocol): 1 μM; for Max peak (% Ach): maximal peak current compared to ACh 100 μM
Procedure: as §1, §2, §3

L. salmonis (preadult 2) = experiment: In-vivo exposure of preadult salmon lice to 1 mg/L for 24 h; parameters: species or system Lepeophtheirus salmonis; details: for Efficacy at 1.0 mg/L (%): preadult 2 parasites
Procedure: The exposure of preadult 2 parasites were conducted as described in [48]. The parasites originated from a salmon louse strain sensitive to all tested compounds [49]. The cultivation of salmon lice was conducted at the NIVA Marine Research Station Solbergstrand in the Oslofjord. Laboratory reared Atlantic salmon of were kept in 1 m^3 tanks supplied with running seawater, salinity 33–35 parts per thousand, temperature 7–9°C. Salmon lice egg strings were harvested from adult females and hatched according to [50]. The preadult salmon lice were harvested on the day of exposure. Fish were anaesthetized with 100 mg/L metacaine for 2 min. The parasites were gently removed from the fish with forceps, placed directly in glass containers filled with 1000 mL filtered seawater and exposed to the compounds within 4 h.
Each group of parasites was exposed to 1 mg/L of the test substance for 24 h. The compounds were dissolved in DMSO and an emulsifier was added immediately before dilution with water. The bottles were finally incubated at 10°C according to [49], with continuous air supply, for 24 h.
After the incubation period was over, the solution with parasites was poured out through a funnel containing a filter. Parasites remaining attached to the bottle wall were classified as alive. Immobilized parasites were collected from the filter. […] All parasites in the two groups were counted and classified according to sex and developmental stage.

[1] = Xenopus oocytes, 1:1 (α:β) ratio
[2] = EC50 (nM), Xenopus oocytes, 1:1 (α:β) ratio
[3] = calculated EC50, text values in μM, 1:1 (α:β) ratio

Lsa-nAChR1 (α1α2β1β2), sequence (A0A7S5PZ05 entry or part of it): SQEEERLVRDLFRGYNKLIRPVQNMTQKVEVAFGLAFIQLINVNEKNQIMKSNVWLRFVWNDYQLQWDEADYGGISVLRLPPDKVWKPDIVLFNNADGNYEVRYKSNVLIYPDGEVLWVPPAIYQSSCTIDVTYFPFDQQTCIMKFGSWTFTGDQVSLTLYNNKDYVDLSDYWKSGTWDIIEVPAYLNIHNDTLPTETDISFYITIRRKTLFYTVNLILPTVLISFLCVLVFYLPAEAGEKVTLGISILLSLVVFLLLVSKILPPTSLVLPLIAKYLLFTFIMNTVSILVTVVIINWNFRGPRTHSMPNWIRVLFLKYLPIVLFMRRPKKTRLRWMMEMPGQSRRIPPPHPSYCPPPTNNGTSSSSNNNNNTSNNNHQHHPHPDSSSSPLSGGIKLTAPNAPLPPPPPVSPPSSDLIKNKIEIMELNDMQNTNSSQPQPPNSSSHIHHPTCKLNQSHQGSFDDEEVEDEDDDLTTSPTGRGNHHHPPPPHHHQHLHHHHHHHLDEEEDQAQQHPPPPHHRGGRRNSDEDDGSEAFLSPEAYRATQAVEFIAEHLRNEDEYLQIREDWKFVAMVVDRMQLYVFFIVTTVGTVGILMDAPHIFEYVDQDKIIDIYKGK
Lsa-nAChR1 (α1α2β1β2), sequence (A0A7S5Q3W4 entry or part of it): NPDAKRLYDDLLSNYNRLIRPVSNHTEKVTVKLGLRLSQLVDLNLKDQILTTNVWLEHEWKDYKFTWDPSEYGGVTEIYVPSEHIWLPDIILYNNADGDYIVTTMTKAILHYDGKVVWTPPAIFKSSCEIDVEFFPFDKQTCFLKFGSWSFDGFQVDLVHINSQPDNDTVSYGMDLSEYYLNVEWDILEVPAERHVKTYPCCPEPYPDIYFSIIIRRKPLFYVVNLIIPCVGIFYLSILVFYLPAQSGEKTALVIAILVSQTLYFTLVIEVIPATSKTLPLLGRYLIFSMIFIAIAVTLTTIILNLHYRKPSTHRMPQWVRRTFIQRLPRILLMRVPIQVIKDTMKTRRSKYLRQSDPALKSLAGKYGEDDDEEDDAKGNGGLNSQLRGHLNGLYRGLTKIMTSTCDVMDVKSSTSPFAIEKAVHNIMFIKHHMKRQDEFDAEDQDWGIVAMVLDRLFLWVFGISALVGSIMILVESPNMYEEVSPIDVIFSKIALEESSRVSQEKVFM
Lsa-nAChR1 (α1α2β1β2), sequence (A0A7S5U9A3 entry or part of it): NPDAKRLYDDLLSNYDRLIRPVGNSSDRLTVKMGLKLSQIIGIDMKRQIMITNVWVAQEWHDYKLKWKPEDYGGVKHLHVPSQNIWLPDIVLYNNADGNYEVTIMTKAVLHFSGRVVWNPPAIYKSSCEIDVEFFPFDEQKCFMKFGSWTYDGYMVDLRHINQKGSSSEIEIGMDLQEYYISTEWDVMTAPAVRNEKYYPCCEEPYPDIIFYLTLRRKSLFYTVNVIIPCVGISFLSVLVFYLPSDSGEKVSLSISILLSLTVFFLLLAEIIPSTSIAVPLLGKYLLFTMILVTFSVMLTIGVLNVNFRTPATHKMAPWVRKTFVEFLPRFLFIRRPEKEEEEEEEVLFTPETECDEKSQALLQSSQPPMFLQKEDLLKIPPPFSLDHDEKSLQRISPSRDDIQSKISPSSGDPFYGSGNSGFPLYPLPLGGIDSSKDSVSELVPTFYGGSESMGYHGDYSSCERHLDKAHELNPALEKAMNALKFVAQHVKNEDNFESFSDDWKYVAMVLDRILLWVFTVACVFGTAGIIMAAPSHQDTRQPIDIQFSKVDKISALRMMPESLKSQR
Lsa-nAChR1 (α1α2β1β2), sequence (A0A7S5Q7H3 entry or part of it): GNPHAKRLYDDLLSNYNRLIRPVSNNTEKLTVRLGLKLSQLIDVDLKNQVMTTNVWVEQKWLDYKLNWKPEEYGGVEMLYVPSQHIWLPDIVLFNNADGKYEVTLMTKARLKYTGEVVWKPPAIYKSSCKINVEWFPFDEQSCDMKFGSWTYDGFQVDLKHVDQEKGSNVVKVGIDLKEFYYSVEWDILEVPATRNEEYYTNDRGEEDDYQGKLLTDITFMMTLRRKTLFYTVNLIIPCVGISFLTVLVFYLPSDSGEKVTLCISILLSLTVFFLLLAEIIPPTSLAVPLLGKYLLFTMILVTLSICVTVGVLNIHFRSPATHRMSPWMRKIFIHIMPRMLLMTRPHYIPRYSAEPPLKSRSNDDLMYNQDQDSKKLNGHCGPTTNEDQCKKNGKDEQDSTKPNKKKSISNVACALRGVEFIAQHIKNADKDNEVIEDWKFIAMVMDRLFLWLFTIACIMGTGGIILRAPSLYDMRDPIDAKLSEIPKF

Compound | EC50 (Lsa-nAChR1 (α1α2β1β2)) | agonist screening (pre- and co-application protocol) (Lsa-nAChR1 (α1α2β1β2); 1:1 (α:β) ratio) | type of effect on the receptor (agonist / partial-agonist / no effect) (Lsa-nAChR1 (α1α2β1β2); 1:1 (α:β) ratio) | Emax (Lsa-nAChR1 (α1α2β1β2)) | EC50 (nM) (Lsa-nAChR2 (α3β1β2); [1]) | type of effect on the receptor (agonist / partial-agonist / super-agonist / no effect) (Lsa-nAChR2 (α3β1β2); 1:1 (α:β) ratio) | Efficacy at 1.0 mg/L (%) (L. salmonis (preadult 2)) | EC50 (nM) (Lsa-nAChR1 (α1α2β1β2); [1]) | agonist screening (pre- and co-application protocol) (Lsa-nAChR2 (α3β1β2); 1:1 (α:β) ratio) | Max peak (% Ach) (Lsa-nAChR2 (α3β1β2); 1:1 (α:β) ratio) | further results
C/C(=N\C#N)N(C)Cc1ccc(Cl)nc1 [Acetamiprid] | 10300 nM | agonists | partial-agonist | 34.1% | No effect | did not affect; also recorded: did not demonstrate any ex-vivo effect | 89.5% |  |  |  | lethal effect / mortality of preadult parasites (L. salmonis (preadult 2)): significant lethal effect; also recorded: high mortality rates
COP(=O)(OC)SCn1c(=O)oc2cc(Cl)cnc21 [Azamethiphos] |  |  |  |  | No effect |  |  | No effect |  |  | 
CN/C(=N\[N+](=O)[O-])NCc1cnc(Cl)s1 [Clothianidin] | 37 nM | agonists | partial-agonists | 41.9% |  | partial-agonists | 54.3% |  | agonists | 75.4% | EC50 (Lsa-nAChR2 (α3β1β2)): 81 nM
CC1(C)C(C=C(Cl)Cl)C1C(=O)OC(C#N)c1cccc(Oc2ccccc2)c1 (stereo not drawn) [Cypermethrin] |  |  |  |  | No effect |  |  | No effect |  |  | 
CC1(C)[C@H](C(=O)O[C@H](C#N)c2cccc(Oc3ccccc3)c2)[C@@H]1C=C(Br)Br [Deltamethrin] |  |  |  |  | No effect |  |  | No effect |  |  | 
CN/C(=N/CC1CCOC1)N[N+](=O)[O-] (stereo not drawn) [Dinotefuran] |  | agonists | partial-agonists | 69.8% |  | super-agonist | 100.0% |  | agonists | 110.2% | EC50 (Lsa-nAChR1 (α1α2β1β2); [2]): 220 nM; EC50 (Lsa-nAChR2 (α3β1β2); [2]): 757 nM
O=[N+]([O-])NC1=NCCN1Cc1ccc(Cl)nc1 [Imidacloprid] | 69 nM | agonists |  | 31.8% | No effect | no effect; also recorded: did not affect; also recorded: did not demonstrate any ex-vivo effect | 100.0% |  |  |  | lethal effect / mortality of preadult parasites (L. salmonis (preadult 2)): significant lethal effect; also recorded: high mortality rates
CN1CCC[C@H]1c1cccnc1 [Nicotine] |  |  | partial-agonist | 27.9% |  | partial-agonist |  |  |  | 16.1% | EC50 (Lsa-nAChR1 (α1α2β1β2); [2]): 3950 nM; EC50 (Lsa-nAChR1 (α1α2β1β2); [3]): 3950 nM; EC50 (Lsa-nAChR2 (α3β1β2); [2]): 9980 nM; EC50 (Lsa-nAChR2 (α3β1β2); [3]): 9980 nM
CCN(Cc1ccc(Cl)nc1)/C(=C/[N+](=O)[O-])NC [Nitenpyram] | 45 nM | agonists | partial-agonists | 27.4% |  | partial-agonists | 17.7% |  | agonists | 70.1% | EC50 (Lsa-nAChR2 (α3β1β2)): 381 nM
N#C/N=C1\SCCN1Cc1ccc(Cl)nc1 [Thiacloprid] |  | agonists | partial-agonist | 6.1% | No effect | did not show any effect | 100.0% |  | agonists |  | EC50 (Lsa-nAChR1 (α1α2β1β2); [2]): 12 nM; type of effect on the receptor (agonist / partial-agonist / super-agonist / no effect) (Lsa-nAChR2 (α3β1β2); 1:1 (α:β) ratio, listed as thiacloprid): did not affect; also recorded: did not demonstrate any ex-vivo effect; lethal effect / mortality of preadult parasites (L. salmonis (preadult 2)): significant lethal effect; also recorded: high mortality rates
CN1COCN(Cc2cnc(Cl)s2)/C1=N\[N+](=O)[O-] [Thiamethoxam] |  |  |  |  | No effect |  | 0.0% | No effect |  |  | 
OCCCCC#Cc1cncc(OC[C@@H]2CCN2)c1 [sazetidine A, Sazetidine A] |  |  |  |  |  |  |  |  |  |  | inward current on average (Lsa-nAChR1 (α1α2β1β2); α:β = 1:10, n = 3): 0.22 μA; inward current on average (Lsa-nAChR1 (α1α2β1β2); α:β = 10:1, n = 3): 0.24 μA; inward current on average (Lsa-nAChR2 (α3β1β2); 10 μM sazetidine A, α:β = 10:1, n = 3 (assignment uncertain)): 0.50 μA; responsiveness to sazetidine A (Lsa-nAChR2 (α3β1β2); 10 μM, α:β = 10:1): responsive
Emamectin |  |  |  |  | No effect |  |  | No effect |  |  | 
